Data published in ChEMBL document CHEMBL4619795, “Establishing the Structure-Activity Relationship of Daptomycin” (ACS Med Chem Lett, 2020).

Experiments:
Format in all cases: functional
[1] = test system: Staphylococcus aureus; experiment: Antibacterial activity against methicillin-resistant Staphylococcus aureus 86 assessed as bacterial growth inhibition in presence of 50 ug/ml calcium ions by CLSI protocol based broth microdilution method
[2] = test system: Staphylococcus aureus; experiment: Antibacterial activity against methicillin-resistant Staphylococcus aureus 14 assessed as bacterial growth inhibition in presence of 50 ug/ml calcium ions by CLSI protocol based broth microdilution method
[3] = test system: Enterococcus; experiment: Antibacterial activity against Enterococcus 6 assessed as bacterial growth inhibition in presence of 50 ug/ml calcium ions by CLSI protocol based broth microdilution method
[4] = test system: Enterococcus; experiment: Antibacterial activity against Enterococcus 60 assessed as bacterial growth inhibition in presence of 50 ug/ml calcium ions by CLSI protocol based broth microdilution method
[5] = test system: Staphylococcus aureus; experiment: Antibacterial activity against methicillin-resistant Staphylococcus aureus 88 assessed as bacterial growth inhibition in presence of 50 ug/ml calcium ions by CLSI protocol based broth microdilution method
[6] = test system: Staphylococcus aureus; experiment: Antibacterial activity against Staphylococcus aureus ATCC 29213 assessed as bacterial growth inhibition in presence of 50 ug/ml calcium ions by CLSI protocol based broth microdilution method
[7] = test system: Enterococcus faecalis; experiment: Antibacterial activity against Enterococcus faecalis ATCC 29212 assessed as bacterial growth inhibition in presence of 50 ug/ml calcium ions by CLSI protocol based broth microdilution method
[8] = test system: Staphylococcus aureus; experiment: Antibacterial activity against methicillin-resistant Staphylococcus aureus 11 assessed as bacterial growth inhibition in presence of 50 ug/ml calcium ions by CLSI protocol based broth microdilution method
[9] = test system: Enterococcus faecalis; experiment: Antibacterial activity against Streptococcus faecalis assessed as bacterial growth inhibition in presence of 50 ug/ml calcium ions by CLSI protocol based broth microdilution method

SMILES | MIC [1] | MIC [2] | MIC [3] | MIC [4] | MIC [5] | MIC [6] | MIC [7] | MIC [8] | MIC [9]
CCCCCCCCCC(=O)N[C@@H](Cc1c[nH]c2ccccc12)C(=O)N[C@@H](CC(N)=O)C(=O)N[C@@H](CC(=O)O)C(=O)N[C@@H]1C(=O)NCC(=O)N[C@@H](CCCN)C(=O)N[C@@H](CC(=O)O)C(=O)N[C@H](C)C(=O)N[C@@H](CC(=O)O)C(=O)NCC(=O)N[C@H](CO)C(=O)N[C@@H]([C@@H](C)CC(=O)O)C(=O)N[C@@H](C)C(=O)O[C@@H]1C | ≥ 32 µg/mL | ≥ 32 µg/mL | ≥ 32 µg/mL | ≥ 32 µg/mL | ≥ 32 µg/mL | ≥ 32 µg/mL | ≥ 32 µg/mL | ≥ 32 µg/mL | ≥ 32 µg/mL
CCCCCCCCCC(=O)N[C@@H](Cc1cccc2ccccc12)C(=O)N[C@@H](CC(N)=O)C(=O)N[C@@H](CC(=O)O)C(=O)N[C@@H]1C(=O)NCC(=O)N[C@@H](CCCN)C(=O)N[C@@H](CC(=O)O)C(=O)N[C@H](C)C(=O)N[C@@H](CC(=O)O)C(=O)NCC(=O)N[C@H](CO)C(=O)N[C@@H]([C@@H](C)CC(=O)O)C(=O)N[C@@H](CC(=O)c2ccccc2N)C(=O)O[C@@H]1C | 0.25 µg/mL | 0.25 µg/mL | 2 µg/mL | 2 µg/mL | 0.125 µg/mL | 0.25 µg/mL | 2 µg/mL | 1 µg/mL | 0.5 µg/mL
CCCCCCCCCC(=O)N[C@@H](Cc1c[nH]c2ccccc12)C(=O)N[C@@H](CC(N)=O)C(=O)N[C@@H](CC(=O)O)C(=O)N[C@@H]1C(=O)NCC(=O)N[C@@H](CCCN)C(=O)N[C@@H](CC(=O)O)C(=O)N[C@H](C)C(=O)N[C@@H](CC(=O)O)C(=O)N(C)CC(=O)N[C@H](CO)C(=O)N[C@@H]([C@@H](C)CC(=O)O)C(=O)N[C@@H](CC(=O)c2ccccc2N)C(=O)O[C@@H]1C | ≥ 32 µg/mL | ≥ 32 µg/mL | ≥ 32 µg/mL | ≥ 32 µg/mL | ≥ 32 µg/mL | ≥ 32 µg/mL | ≥ 32 µg/mL | ≥ 32 µg/mL | ≥ 32 µg/mL
CCCCCCCCCC(=O)N[C@@H](Cc1ccncc1)C(=O)N[C@@H](CC(N)=O)C(=O)N[C@@H](CC(=O)O)C(=O)N[C@@H]1C(=O)NCC(=O)N[C@@H](CCCN)C(=O)N[C@@H](CC(=O)O)C(=O)N[C@H](C)C(=O)N[C@@H](CC(=O)O)C(=O)NCC(=O)N[C@H](CO)C(=O)N[C@@H]([C@@H](C)CC(=O)O)C(=O)N[C@@H](CC(=O)c2ccccc2N)C(=O)O[C@@H]1C | ≥ 32 µg/mL | ≥ 32 µg/mL | ≥ 32 µg/mL | ≥ 32 µg/mL | ≥ 32 µg/mL | ≥ 32 µg/mL | ≥ 32 µg/mL | ≥ 32 µg/mL | ≥ 32 µg/mL
C#Cc1ccc(C(=O)N[C@@H](Cc2c[nH]c3ccccc23)C(=O)N[C@@H](CC(N)=O)C(=O)N[C@@H](CC(=O)O)C(=O)N[C@@H]2C(=O)NCC(=O)N[C@@H](CCCN)C(=O)N[C@@H](CC(=O)O)C(=O)N[C@H](C)C(=O)N[C@@H](CC(=O)O)C(=O)NCC(=O)N[C@H](CO)C(=O)N[C@@H]([C@@H](C)CC(=O)O)C(=O)N[C@@H](CC(=O)c3ccccc3N)C(=O)O[C@@H]2C)cc1 | ≥ 32 µg/mL | ≥ 32 µg/mL | ≥ 32 µg/mL | ≥ 32 µg/mL | ≥ 32 µg/mL | ≥ 32 µg/mL | ≥ 32 µg/mL | ≥ 32 µg/mL | ≥ 32 µg/mL
CCCCCCCCCC(=O)N[C@@H](Cc1c[nH]c2ccccc12)C(=O)N[C@@H](CC(N)=O)C(=O)N[C@@H](CC(=O)O)C(=O)N[C@@H]1C(=O)NCC(=O)N[C@@H](C)C(=O)N[C@@H](CC(=O)O)C(=O)N[C@H](C)C(=O)N[C@@H](CC(=O)O)C(=O)NCC(=O)N[C@H](CO)C(=O)N[C@@H]([C@@H](C)CC(=O)O)C(=O)N[C@@H](CC(=O)c2ccccc2N)C(=O)O[C@@H]1C | 0.5 µg/mL | 0.25 µg/mL | 2 µg/mL | 1 µg/mL | 1 µg/mL | 0.5 µg/mL | 4 µg/mL | 0.5 µg/mL | 4 µg/mL
CCCCCCCCCC(=O)N[C@@H](Cc1c[nH]c2ccccc12)C(=O)N[C@@H](CC(N)=O)C(=O)N[C@@H](CC(=O)O)C(=O)N[C@@H]1C(=O)NCC(=O)N[C@@H](CCSC)C(=O)N[C@@H](CC(=O)O)C(=O)N[C@H](C)C(=O)N[C@@H](CC(=O)O)C(=O)NCC(=O)N[C@H](CO)C(=O)N[C@@H]([C@@H](C)CC(=O)O)C(=O)N[C@@H](CC(=O)c2ccccc2N)C(=O)O[C@@H]1C | ≥ 32 µg/mL | ≥ 32 µg/mL | ≥ 32 µg/mL | 32 µg/mL | ≥ 32 µg/mL | ≥ 32 µg/mL | ≥ 32 µg/mL | ≥ 32 µg/mL | ≥ 32 µg/mL
CCCCCCCCCC(=O)N[C@@H](Cc1c[nH]c2ccccc12)C(=O)N[C@@H](CC(N)=O)C(=O)N[C@@H](CC(=O)O)C(=O)N[C@@H]1C(=O)NCC(=O)N[C@@H](CCCN)C(=O)N[C@@H](CC(=O)O)C(=O)N[C@H](C)C(=O)N[C@H](CC(=O)O)C(=O)NCC(=O)N[C@H](CO)C(=O)N[C@@H]([C@@H](C)CC(=O)O)C(=O)N[C@@H](CC(=O)c2ccccc2N)C(=O)O[C@@H]1C | 16 µg/mL | ≥ 32 µg/mL | ≥ 32 µg/mL | ≥ 32 µg/mL | 16 µg/mL | 16 µg/mL | ≥ 32 µg/mL | ≥ 32 µg/mL | ≥ 32 µg/mL
CCCCCCCCCC(=O)N[C@@H](Cc1c[nH]c2ccccc12)C(=O)N[C@@H](CC(N)=O)C(=O)N[C@@H](CC(=O)O)C(=O)N[C@@H]1C(=O)NCC(=O)N[C@@H](CC(N)=O)C(=O)N[C@@H](CC(=O)O)C(=O)N[C@H](C)C(=O)N[C@@H](CC(=O)O)C(=O)NCC(=O)N[C@H](CO)C(=O)N[C@@H]([C@@H](C)CC(=O)O)C(=O)N[C@@H](CC(=O)c2ccccc2N)C(=O)O[C@@H]1C | ≥ 32 µg/mL | ≥ 32 µg/mL | ≥ 32 µg/mL | ≥ 32 µg/mL | ≥ 32 µg/mL | ≥ 32 µg/mL | ≥ 32 µg/mL | ≥ 32 µg/mL | ≥ 32 µg/mL
CCCCCCCCCC(=O)N[C@@H](Cc1c[nH]c2ccccc12)C(=O)N[C@@H](CC(N)=O)C(=O)N[C@@H](CC(=O)O)C(=O)N[C@@H]1C(=O)NCC(=O)N[C@@H](CCCN)C(=O)N[C@@H](CC(=O)O)C(=O)N[C@H](C)C(=O)N[C@@H](C(C)CC(=O)O)C(=O)NCC(=O)N[C@H](CO)C(=O)N[C@@H](C(C)CC(=O)O)C(=O)N[C@@H](CC(=O)c2ccccc2N)C(=O)O[C@@H]1C (single isomer, unassigned) | ≥ 32 µg/mL | ≥ 32 µg/mL | ≥ 32 µg/mL | ≥ 32 µg/mL | ≥ 32 µg/mL | ≥ 32 µg/mL | ≥ 32 µg/mL | ≥ 32 µg/mL | ≥ 32 µg/mL
CCCCCCCCCC(=O)N[C@@H](Cc1c[nH]c2ccccc12)C(=O)N[C@@H](CC(N)=O)C(=O)N[C@@H](CC(=O)O)C(=O)N[C@@H]1C(=O)NCC(=O)N[C@@H]([C@@H](C)O)C(=O)N[C@@H](CC(=O)O)C(=O)N[C@H](C)C(=O)N[C@@H](CC(=O)O)C(=O)NCC(=O)N[C@H](CO)C(=O)N[C@@H]([C@@H](C)CC(=O)O)C(=O)N[C@@H](CC(=O)c2ccccc2N)C(=O)O[C@@H]1C | 2 µg/mL | 16 µg/mL | ≥ 32 µg/mL | ≥ 32 µg/mL | 2 µg/mL | 2 µg/mL | ≥ 32 µg/mL | 16 µg/mL | ≥ 32 µg/mL
CCCCCCCCCC(=O)N[C@@H](Cc1c[nH]c2ccccc12)C(=O)N[C@@H](CC(N)=O)C(=O)N[C@@H](CC(=O)O)C(=O)N[C@@H]1C(=O)NCC(=O)N[C@@H](CCC(N)=O)C(=O)N[C@@H](CC(=O)O)C(=O)N[C@H](C)C(=O)N[C@@H](CC(=O)O)C(=O)NCC(=O)N[C@H](CO)C(=O)N[C@@H]([C@@H](C)CC(=O)O)C(=O)N[C@@H](CC(=O)c2ccccc2N)C(=O)O[C@@H]1C | 4 µg/mL | ≥ 32 µg/mL | ≥ 32 µg/mL | ≥ 32 µg/mL | 4 µg/mL | 4 µg/mL | ≥ 32 µg/mL | ≥ 32 µg/mL | ≥ 32 µg/mL
CCCCCCCCCC(=O)N[C@@H](Cc1c[nH]c2ccccc12)C(=O)N[C@@H](CC(N)=O)C(=O)N[C@@H](CC(=O)O)C(=O)N[C@@H]1C(=O)NCC(=O)N[C@@H]([C@@H](C)CC)C(=O)N[C@@H](CC(=O)O)C(=O)N[C@H](C)C(=O)N[C@@H](CC(=O)O)C(=O)NCC(=O)N[C@H](CO)C(=O)N[C@@H]([C@@H](C)CC(=O)O)C(=O)N[C@@H](CC(=O)c2ccccc2N)C(=O)O[C@@H]1C | 8 µg/mL | ≥ 32 µg/mL | ≥ 64 µg/mL | 32 µg/mL | 4 µg/mL | 8 µg/mL | ≥ 64 µg/mL | ≥ 32 µg/mL | ≥ 64 µg/mL
CCCCCCCCCC(=O)N[C@@H](Cc1c[nH]c2ccccc12)C(=O)N[C@@H](CC(N)=O)C(=O)N[C@@H](CC(=O)O)C(=O)N[C@@H]1C(=O)NCC(=O)N[C@@H](Cc2c[nH]cn2)C(=O)N[C@@H](CC(=O)O)C(=O)N[C@H](C)C(=O)N[C@@H](CC(=O)O)C(=O)NCC(=O)N[C@H](CO)C(=O)N[C@@H]([C@@H](C)CC(=O)O)C(=O)N[C@@H](CC(=O)c2ccccc2N)C(=O)O[C@@H]1C | 8 µg/mL | 16 µg/mL | ≥ 32 µg/mL | ≥ 32 µg/mL | 8 µg/mL | 8 µg/mL | ≥ 32 µg/mL | 16 µg/mL | ≥ 32 µg/mL
